Experimental data as given in ChEMBL document CHEMBL5331134, “Identification of Brain-Penetrant ATP-Competitive mTOR Inhibitors for CNS Syndromes” (J Med Chem, 2023).

Experiment: Ratio of drug concentration in brain to plasma in C57BL/6 mouse at 10 mg/kg, po measured at 8 hrs
Format: ADME, organism-based
Conditions: read-out: BPR

Kp at 8 h: 0.57
SMILES: C[C@@H]1COCCN1c1cc(N2CCOC[C@@H]2C)nc2[nH]c(-c3cscn3)nc12
